Results as given in US12398121B2 (Nuvation Bio Inc., priority 2018, dated 2025).
Read-outs that look alike come from different tables or passages of the source.

What was measured:
22RV1 cells = assay: Cell proliferation assay (CellTiter Glo), 22RV1; assay type: cell-based; details: Homo sapiens, 22Rv1, 72 h, read-out: 22RV1 IC50
Experimental: (§1) IC50 values were calculated and graphed using the model “log(inhibitor) vs. response—Variable slope” included in GraphPad Prism 5 (San Diego, CA). The Ki values were further calculated using the equation below where [L] was the radioligand concentration (1 nM) using in this study. Kd value was 0.332 nM. Ki=IC50/(1+[L]/Kd) c. AR transactivation: Human AR cloned into a CMV vector backbone was used for the transactivation study. HEK-293 cells were plated at 80,000 cells per well of a 24 well plate in DME+5% csFBS. Twenty four hours later, the cells were transfected using Lipofectamine (Invitrogen, Carlsbad, CA) with 0.25 μg GRE-LUC, 0.01 μg CMV-LUC (renilla luciferase) and 25 ng of the AR in OPTIMEM medium. The cells were treated 24 hrs after transfection with various ligands (10^−12 to 10^−5 M final concentrations) and luciferase assay were performed 48 hours after transfection. Firefly values were normalized to renilla luciferase values and the values were represented as relative light units (RLU). Agonist and antagonist assays for the test article were performed in the absence and in the combination with 0.1 nM R1881, respectively. Data were represented as EC50 (for agonists) and IC50 (for antagonists) obtained from four parameter logistics curve. Cell culture and proliferation assays: LNCaP, PC-3, 22RV1, MCF-7, HT-29, and HCT-116 cells were procured from American Type Culture Collection (ATCC). Cells were cultured in medium recommended by the ATCC. Cell culture medium was obtained from Fisher scientific (Waltham, MA) and serum was obtained from Hyclone (San Angelo, TX).
(§2) Cells were plated at varying density in the respective growth medium in 96 well plates. 24 hr later, cells were treated, in triplicate or quadruplicate, with test articles prepared in a range of concentrations by series dilution of DMSO stock solutions in growth medium and incubated for three to seven days. The number of viable 22RV1 and HT-29 cells was measured using CellTiter Glo assay (CTG, Promega, Madison, WI) after three days of treatment. The other types of cancer cells were re-treated at three or four days and the number of viable cells was measured using CTG assay after a total treatment time of six or seven days. Cell viability data were plotted using GraphPad Prism (GraphPad Software, Inc., San Diego, CA). In addition, a nonlinear regression model with a sigmoidal dose response and variable slope within GraphPad Prism was used to calculate the IC50 value of individual test articles. Additional cell proliferation assays: Other cancer cell lines are tested in a cell proliferation assay. For example, SK-OV-3 or OVCAR3 ovarian cancer cells are tested. Cells are cultured in medium recommended by the supplier (e.g., ATCC or JCRB Cell Bank), at 37° C. in a 5% CO2 environment. For the proliferation assay, cells are plated in the growth medium in 96 well plates. Seeding density is adjusted according to the cell type. 24 hr later, cells are treated, in triplicate or quadruplicate, with test articles prepared in a range of concentrations by series dilution of DMSO stock solutions in growth medium, and typically incubated for three to seven days, with test article-containing medium replaced after three or four days. The number of viable cells is measured using CellTiter Glo assay (CTG, Promega, Madison, WI) or similar. Cell viability data are plotted using GraphPad Prism (GraphPad Software, Inc., San Diego, CA). In addition, a nonlinear regression model with a sigmoidal dose response and variable slope within GraphPad Prism is used to calculate the IC50 value of individual test articles. Similarly, HEK-293 and HeLa calls can also be tested by methods known in the art. • f. Nuclear translocation: LNCaP cells are plated on coverslips in 24 well plates in growth medium. Twenty-four hours after plating, medium is changed to RPMI+1% csFBS and the cells are maintained in this medium for two days. Medium is replaced again and the cells are treated. […]

HT-29 cells = assay: Cell proliferation assay (CellTiter Glo), HT-29; assay type: cell-based; details: Homo sapiens, HT-29, 72 h, read-out: HT-29 IC50
Experimental: as §1, §2

[1] = cell growth inhibition, three days of treatment

Structure (SMILES)	IC50 (22RV1 cells) [µM]	IC50 (HT-29 cells) [µM]	IC50 (22RV1 cells; [1]) [µM]	IC50 (HT-29 cells; [1]) [µM]
CC(O)(CS(=O)(=O)c1ccc(NCCn2cc(CN3CCN(C(=O)c4cc(Cc5n[nH]c(=O)c6ccccc56)ccc4F)CC3)nn2)cc1)C(=O)Nc1ccc(C#N)c(C(F)(F)F)c1 (stereo in doubt) [Compound 1.97, (S)-N-(4-cyano-3-(trifluoromethyl)phenyl)-3-(4-(2-(4-((4-(2-fluoro-5-((4-oxo-3,4-dihydrophthalazin-1-yl)methyl)benzoyl)piperazin-1-yl)methyl)-1H-1,2,3-triazol-1-yl)ethylamino)phenylsulfonyl)-2-hydroxy-2-methylpropanamide]	> 30	> 30		
C[C@]12CCC(=O)C[C@@H]1CC[C@@H]1[C@@H]2CC[C@]2(C)[C@@H](OCCCCCC(=O)N3CCN(C(=O)c4cc(Cc5n[nH]c(=O)c6ccccc56)ccc4F)CC3)CC[C@@H]12 [Compound 1.2, 4-(3-(4-(6-(((5S,8R,9S,10S,13S,14S,17S)-10,13-dimethyl-3-oxohexadecahydro-1H-cyclopenta[a]phenanthren-17-yl)oxy)hexanoyl)piperazine-1-carbonyl)-4-fluorobenzyl)phthalazin-1(2H)-one]	0.4	> 10		
O=C(c1ccc(OCCN2CCN(C(=O)c3cc(Cc4n[nH]c(=O)c5ccccc45)ccc3F)CC2)cc1)c1c(-c2ccc(O)cc2)sc2cc(O)ccc12 [Compound 2.13, 4-(4-fluoro-3-(4-(2-(4-(6-hydroxy-2-(4-hydroxyphenyl)benzo[b]thiophene-3-carbonyl)phenoxy)ethyl)piperazine-1-carbonyl)benzyl)phthalazin-1(2H)-one]			1.69	6
C[C@](O)(COc1ccc(NCCCCCC(=O)N2CCN(C(=O)c3cc(Cc4n[nH]c(=O)c5ccccc45)ccc3F)CC2)cc1)C(=O)Nc1ccc(C#N)c(C(F)(F)F)c1 [Compound 1.83, (S)-N-(4-cyano-3-(trifluoromethyl)phenyl)-3-(4-(6-(4-(2-fluoro-5-((4-oxo-3,4-dihydrophthalazin-1-yl)methyl)benzoyl)piperazin-1-yl)-6-oxohexylamino)phenoxy)-2-hydroxy-2-methylpropanamide]	> 30	> 10		
C[C@]12CCC(=O)C[C@@H]1CC[C@@H]1[C@@H]2CC[C@]2(C)[C@@H](OCCOCC(=O)N3CCN(C(=O)c4cc(Cc5n[nH]c(=O)c6ccccc56)ccc4F)CC3)CC[C@@H]12 [Compound 1.104, 4-(3-(4-(2-(2-((5S,8R,9S,10S,13S,14S,17S)-10,13-dimethyl-3-oxohexadeca hydro-1H-cyclopenta[a]phenanthren-17-yloxy)ethoxy)acetyl)piperazine-1-carbonyl)-4-fluorobenzyl)phthalazin-1(2H)-one]			1.1	9.3
